Patent US10597388B2, “Pyridazinone herbicides” (FMC CORPORATION, priority 2014, dated 2020)
Read-outs that look alike come from different tables or passages of the source.

Key:
Format in all cases: in vivo
[1] = system: pigweed (Amaranthus retroflexus); experiment: Test A greenhouse herbicide test, pre- and postemergence; details: Amaranthus retroflexus, 240 h; for pest or weed control at 1000 g/ha: 1000 g ai/ha; for pest or weed control at 1000 g/ha / pest or weed control at 500 g/ha: 0 to 100 scale; for pest or weed control at 125 g/ha: 125 g ai/ha; for pest or weed control at 500 g/ha: 500 g ai/ha
Summary of the method: (§1)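 Visual injury ratings, 0 (no effect) to 100 (complete control), versus untreated plants after roughly 10 d in a greenhouse. Compounds, formulated in a surfactant-containing non-phytotoxic solvent, were sprayed on loam–sand soil after sowing (pre) or on one- to two-leaf plants 2–10 cm tall (post).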

[2] = system: wheat (Triticum aestivum); experiment: as above; details: Triticum aestivum, 240 h; for plant injury at 1000 g/ha: 1000 g ai/ha; for plant injury at 1000 g/ha / plant injury at 500 g/ha: 0 to 100 scale; for plant injury at 125 g/ha: 125 g ai/ha, visual rating after approx. 10 d, 0 to 100 scale (0 no effect, 100 complete control); for plant injury at 500 g/ha: 500 g ai/ha
Summary of the method: as §1

[3] = system: lambsquarters (Chenopodium album); experiment: Test C greenhouse herbicide test, pre- and postemergence
Description: (§2) Seeds of plant species selected from blackgrass (Alopecurus myosuroides), ryegrass, Italian (Italian ryegrass, Lolium multiflorum), wheat (winter wheat, Triticum aestivum), galium (catchweed bedstraw, Galium aparine), corn (Zea mays), large crabgrass, large (large crabgrass, Digitaria sanguinalis), foxtail, giant (giant foxtail, Setaria faberii), johnsongrass (Sorghum halepense), lambsquarters (Chenopodium album), morningglory (Ipomoea coccinea), nutsedge, yellow (yellow nutsedge, Cyperus esculentus), pigweed (Amaranthus retroflexus), ragweed (common ragweed, Ambrosia elatior), soybean (Glycine max), barnyardgrass (Echinochloa crus-galli), oilseed rape (Brassica napus), waterhemp (common waterhemp, Amaranthus rudis), and velvetleaf (Abutilon theophrasti) were planted into a blend of loam soil and sand and treated preemergence with test chemicals formulated in a non-phytotoxic solvent mixture which included a surfactant.
(§3) At the same time, plants selected from these crop and weed species and also chickweed (common chickweed, Stellaria media), kochia (Kochia scoparia), and oat, wild (wild oat, Avena fatua), were planted in pots containing Redi-Earth® planting medium (Scotts Company, 14111 Scottslawn Road, Marysville, Ohio 43041) comprising spaghnum peat moss, vermiculite, wetting agent and starter nutrients and treated with postemergence applications of test chemicals formulated in the same manner. Plants ranged in height from 2 to 18 cm (1- to 4-leaf stage) for postemergence treatments. Treated plants and controls were maintained in a greenhouse for 13 to 15 d, after which time all species were compared to controls and visually evaluated. Plant response ratings, summarized in Table C, are based on a scale of 0 to 100 where 0 is no effect and 100 is complete control. A dash (-) response means no test result.

[4] = system: morningglory (Ipomoea coccinea); experiment: as above
Description: as §2, §3

[5] = system: oilseed rape (Brassica napus); experiment: as above
Description: as §2, §3

[6] = system: pigweed (Amaranthus retroflexus); experiment: as above
Description: as §2, §3

[7] = system: ragweed (common ragweed, Ambrosia elatior); experiment: as above
Description: as §2, §3

[8] = system: waterhemp (common waterhemp, Amaranthus rudis); experiment: as above
Description: as §2, §3

[9] = system: ryegrass, Italian (Italian ryegrass, Lolium multiflorum); experiment: Test A greenhouse herbicide test, pre- and postemergence; details: Lolium multiflorum, 240 h; for pest or weed control at 125 g/ha: 125 g ai/ha; for pest or weed control at 500 g/ha: 500 g ai/ha, 0 to 100 scale
Summary of the method: as §1

[10] = system: blackgrass (Alopecurus myosuroides); experiment: Test A greenhouse herbicide test, postemergence; details: Alopecurus myosuroides, post-emergence, 240 h; for pest or weed control at 125 g/ha: 125 g ai/ha, visual rating after approx. 10 d, 0 to 100 scale (0 no effect, 100 complete control), read-out: Plant response rating, Blackgrass; for pest or weed control at 500 g/ha: 500 g ai/ha, 0 to 100 scale, 0 is no effect, 100 is complete control, read-out: Blackgrass plant response rating
Summary of the method: (§4)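 Scores are visual injury ratings from 0 (no effect) to 100 (complete control) versus untreated plants, taken roughly 10 d after treatment in the greenhouse. Treatment was postemergence, on one- to two-leaf plants 2–10 cm high growing in a loam soil/sand mix.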

[11] = system: galium (catchweed bedstraw, Galium aparine); experiment: Test A greenhouse herbicide test, postemergence; details: Galium, post-emergence, 240 h; for pest or weed control at 125 g/ha: 125 g ai/ha, visual rating after approx. 10 d, 0 to 100 scale (0 no effect, 100 complete control), read-out: Plant response rating, Galium; for pest or weed control at 500 g/ha: 500 g ai/ha, 0 to 100 scale, 0 is no effect, 100 is complete control, read-out: Galium plant response rating
Summary of the method: as §4

[12] = post-emergence, Postemergence, 0 is no effect, 100 is complete control, read-out: Pigweed plant response rating
[13] = pre-emergence, Preemergence, 0 no effect, 100 complete control, read-out: Plant response rating, Pigweed
[14] = post-emergence, Postemergence, 0 is no effect, 100 is complete control, read-out: Wheat plant response rating
[15] = Postemergence, 31 g ai/ha, 0 to 100 scale (0 no effect, 100 complete control)
[16] = Postemergence, 125 g ai/ha, scale 0 to 100, 0 is no effect, 100 is complete control
[17] = Postemergence, 250 g ai/ha, scale 0 to 100, 0 no effect, 100 complete control, 13 to 15 d
[18] = Preemergence, 31 g ai/ha, scale 0 to 100, 0 is no effect, 100 is complete control
[19] = Preemergence, 62 g ai/ha, scale 0 to 100, 0 is no effect, 100 is complete control
[20] = Preemergence, 125 g ai/ha, scale 0 to 100, 0 is no effect, 100 is complete control
[21] = Preemergence, 250 g ai/ha, scale 0 to 100, 0 no effect, 100 complete control
[22] = postemergence, 62 g ai/ha, scale 0 to 100, 0 no effect, 100 complete control
[23] = post-emergence, Postemergence, visual rating after approx. 10 d, 0 to 100 scale (0 no effect, 100 complete control), read-out: Plant response rating, Pigweed
[24] = pre-emergence, Preemergence, 0 to 100 scale where 0 is no effect and 100 is complete control, read-out: Pigweed plant response rating
[25] = post-emergence, Postemergence, visual rating after approx. 10 d, 0 to 100 scale (0 no effect, 100 complete control), read-out: Plant response rating, Ryegrass, Italian
[26] = post-emergence, Postemergence, 0 is no effect, 100 is complete control, read-out: Ryegrass, Italian plant response rating
[27] = pre-emergence, Preemergence, 0 to 100 scale where 0 is no effect and 100 is complete control, read-out: Ryegrass, Italian plant response rating
[28] = pre-emergence, Preemergence, 0 no effect, 100 complete control, read-out: Plant response rating, Ryegrass, Italian
[29] = post-emergence, Postemergence, read-out: Plant response rating, Wheat

SMILES: Cc1nn(C)c(=O)c(-c2cccc3ccccc23)c1O [Compound 11, 5-hydroxy-2,6-dimethyl-4-(1-naphthalenyl)-3(2H)-pyridazinone]
- pest or weed control at 1000 g/ha [1, 12]: 90%
- pest or weed control at 1000 g/ha [1, 13]: 100%
- plant injury at 1000 g/ha [2, 14]: 60%
- plant injury at 1000 g/ha ([2]; pre-emergence, Preemergence, 0 no effect, 100 complete control, read-out: Plant response rating, Wheat): 50%
- Lambsquarters plant response rating [3, 15]: 80
- Plant response rating, Lambsquarters [3, 16]: 90
- Plant response rating, Lambsquarters [3, 17]: 90
- Plant response rating, Lambsquarters [3, 18]: 70
- Plant response rating, Lambsquarters [3, 19]: 100
- Plant response rating, Lambsquarters [3, 20]: 100
- Lambsquarters plant response rating [3, 21]: 100
- Lambsquarters plant response rating [3, 22]: 90
- Morningglory plant response rating [4, 15]: 70
- Plant response rating, Morningglory [4, 16]: 90
- Plant response rating, Morningglory [4, 17]: 98
- Plant response rating, Morningglory [4, 18]: 100
- Plant response rating, Morningglory [4, 19]: 100
- Plant response rating, Morningglory [4, 20]: 100
- Morningglory plant response rating [4, 21]: 100
- Morningglory plant response rating [4, 22]: 80
- Oilseed Rape plant response rating [5, 15]: 0
- Plant response rating, Oilseed Rape [5, 16]: 0
- Plant response rating, Oilseed Rape [5, 17]: 0
- Plant response rating, Oilseed Rape [5, 18]: 0
- Plant response rating, Oilseed Rape [5, 19]: 0
- Plant response rating, Oilseed Rape [5, 20]: 0
- Oilseed Rape plant response rating [5, 21]: 0
- Oilseed Rape plant response rating [5, 22]: 0
- Pigweed plant response rating [6, 15]: 50
- Plant response rating, Pigweed [6, 16]: 90
- Plant response rating, Pigweed [6, 17]: 95
- Plant response rating, Pigweed [6, 18]: 0
- Plant response rating, Pigweed [6, 19]: 100
- Plant response rating, Pigweed [6, 20]: 100
- Pigweed plant response rating [6, 21]: 100
- Pigweed plant response rating [6, 22]: 90
- Ragweed plant response rating [7, 15]: 0
- Plant response rating, Ragweed [7, 16]: 95
- Plant response rating, Ragweed [7, 17]: 95
- Plant response rating, Ragweed [7, 18]: 15
- Plant response rating, Ragweed [7, 19]: 50
- Plant response rating, Ragweed [7, 20]: 80
- Ragweed plant response rating [7, 21]: 90
- Ragweed plant response rating [7, 22]: 40
- Waterhemp plant response rating [8, 15]: 80
- Plant response rating, Waterhemp [8, 16]: 95
- Plant response rating, Waterhemp [8, 17]: 95
- Plant response rating, Waterhemp [8, 19]: 100
- Plant response rating, Waterhemp [8, 20]: 100
- Waterhemp plant response rating [8, 21]: 100
- Waterhemp plant response rating [8, 22]: 80

SMILES: Cc1ccc2oc(C)c(-c3c(OC(=O)C(C)(C)C)c(C)nn(C)c3=O)c2c1 [Compound 17, 5-(2,5-dimethyl-3-benzofuranyl)-1,6-dihydro-1,3-dimethyl-6-oxo-4-pyridazinyl 2,2-dimethylpropanoate]
- pest or weed control at 125 g/ha [1, 23]: 0%
- pest or weed control at 500 g/ha [1, 12]: 0%
- pest or weed control at 125 g/ha [1, 24]: 0%
- pest or weed control at 500 g/ha [1, 13]: 0%
- pest or weed control at 125 g/ha [9, 25]: 50%
- pest or weed control at 500 g/ha [9, 26]: 60%
- pest or weed control at 125 g/ha [9, 27]: 10%
- pest or weed control at 500 g/ha [9, 28]: 40%
- plant injury at 125 g/ha [2, 29]: 0%
- plant injury at 500 g/ha [2, 14]: 0%
- pest or weed control at 125 g/ha [10]: 10%
- pest or weed control at 500 g/ha [10]: 40%
- pest or weed control at 125 g/ha [11]: 50%
- pest or weed control at 500 g/ha [11]: 60%

SMILES: Cc1cc(C)c2oc(C)c(-c3c(OC(=O)C(C)(C)C)c(C)nn(C)c3=O)c2c1 [Compound 18, 1,6-dihydro-1,3-dimethyl-6-oxo-5-(2,5,7-trimethyl-3-benzofuranyl)-4-pyridazinyl 2,2-dimethylpropanoate]
- pest or weed control at 125 g/ha [1, 23]: 0%
- pest or weed control at 500 g/ha [1, 12]: 0%
- pest or weed control at 125 g/ha [1, 24]: 0%
- pest or weed control at 500 g/ha [1, 13]: 0%
- pest or weed control at 125 g/ha [9, 25]: 10%
- pest or weed control at 500 g/ha [9, 26]: 50%
- pest or weed control at 125 g/ha [9, 27]: 0%
- pest or weed control at 500 g/ha [9, 28]: 20%
- plant injury at 125 g/ha [2, 29]: 0%
- plant injury at 500 g/ha [2, 14]: 0%
- pest or weed control at 125 g/ha [10]: 0%
- pest or weed control at 500 g/ha [10]: 20%
- pest or weed control at 125 g/ha [11]: 40%
- pest or weed control at 500 g/ha [11]: 60%
